Experimental data reported in patent US6638957B1, “Use of compounds with a nitrogen-oxygen heterocycle” (Jomaa Pharmaka GmbH, priority 1999, dated 2003).
Converted amounts (≈) assume the structure as drawn.

Key:
Sinapis arvensis [1] = assay: herbicidal activity, Erde Nachauflauf; assay type: in vivo; settings: Mutarda arvensis; 2000 Gramm/Hektar
Description: (§1) The determination of herbicidal activity is performed according to standard procedure. Again the compounds listed on page 9 are tested.

Avena fatua [2] = assay: herbicidal activity, Erde Nachauflauf; assay type: in vivo; settings: 2000 Gramm/Hektar
Description: as §1

Galium aperine [3] = assay: herbicidal activity, Erde Nachauflauf; assay type: in vivo; settings: 2000 Gramm/Hektar
Description: as §1

Zea mays [4] = assay: herbicidal activity, Erde Nachauflauf; assay type: in vivo; settings: 2000 Gramm/Hektar
Description: as §1

Xanthium strumarium [5] = assay: herbicidal activity, Erde Nachauflauf; assay type: in vivo; settings: 2000 Gramm/Hektar
Description: as §1

Cyperus esculentus [6] = assay: herbicidal activity, Erde Nachauflauf; assay type: in vivo; settings: 2000 Gramm/Hektar
Description: as §1

Amaranthus retroflexus [7] = assay: herbicidal activity, Erde Nachauflauf; assay type: in vivo; settings: 2000 Gramm/Hektar
Description: as §1

Abutilon theophrasti [8] = assay: herbicidal activity, Erde Nachauflauf; assay type: in vivo; settings: 2000 Gramm/Hektar
Description: as §1

Alopecurus myosuroides [9] = assay: herbicidal activity, Erde Nachauflauf; assay type: in vivo; settings: 2000 Gramm/Hektar
Description: as §1

Beta vulgaris [10] = assay: herbicidal activity, Erde Nachauflauf; assay type: in vivo; settings: 2000 Gramm/Hektar
Description: as §1

Setaria viridis [11] = assay: herbicidal activity, Erde Nachauflauf; assay type: in vivo; settings: 2000 Gramm/Hektar
Description: as §1

Solanum = assay: herbicidal activity, Hydro Vorauflauf; assay type: in vivo; settings: 4000 Gramm/Hektar
Description: as §1

Lepidium = assay: herbicidal activity, Hydro Vorauflauf; assay type: in vivo; settings: 4000 Gramm/Hektar
Description: as §1

Reis = assay: herbicidal activity, Hydro Vorauflauf; assay type: in vivo; settings: 4000 Gramm/Hektar
Description: as §1

Echinochloa = assay: herbicidal activity, Hydro Vorauflauf; assay type: in vivo; settings: 4000 Gramm/Hektar
Description: as §1

Pseudomonas aeruginosa = assay: antibacterial activity, minimum inhibition concentration in liquid culture; assay type: cell-based; settings: read-out: MIC(nM) of bacteria culture (Pseudomonas aeruginosa)
Description: A dilution series comprising the concentrations 500, 100, 50, 10 and 0 μmol 1^−1 of the individual compounds in LB medium is introduced into 5 culture microtubes in a volume of 0,5 ml. The tubes were inoculated with 10 μl of an overnight culture of E. coli K12 and shaken overnight at 37° C. The growth of the bacteria was assessed on the basis of the turbidity of the medium. The minimum concentration causing inhibition of bacterial growth was determined (minimum inhibition concentration MIC)
The antibacterial activity of P. aeruginosa was determined in the same manner.

[12] = target: T1, DOXP reductoisomerase of Escherichia coli (UniProt P56139); assay: inhibition of recombinant DOXP reductoisomerase (NADPH oxidation); assay type: biochemical; settings: 1 mM DOXP, 0,3 mM NADPH, pH 7,5; read-out: IC50(nM) of DOXP reductoisomerase from Helicobacter pilori
T1 sequence (P56139 1-368): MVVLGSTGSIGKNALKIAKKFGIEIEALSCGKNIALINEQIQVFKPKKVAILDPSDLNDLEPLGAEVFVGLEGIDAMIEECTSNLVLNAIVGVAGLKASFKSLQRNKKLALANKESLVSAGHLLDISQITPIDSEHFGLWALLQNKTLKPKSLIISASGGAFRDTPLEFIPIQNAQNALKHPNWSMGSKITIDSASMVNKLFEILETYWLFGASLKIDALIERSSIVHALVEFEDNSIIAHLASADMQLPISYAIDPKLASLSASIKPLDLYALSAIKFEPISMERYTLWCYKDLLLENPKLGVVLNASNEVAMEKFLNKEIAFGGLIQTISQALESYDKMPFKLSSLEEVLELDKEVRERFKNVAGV

Sinapis arvensis [13] = assay: herbicidal activity, Erde Vorauflauf; assay type: in vivo; settings: Mutarda arvensis; 2000 Gramm/Hektar
Description: as §1

Avena fatua [14] = assay: herbicidal activity, Erde Vorauflauf; assay type: in vivo; settings: 2000 Gramm/Hektar
Description: as §1

Galium aperine [15] = assay: herbicidal activity, Erde Vorauflauf; assay type: in vivo; settings: 2000 Gramm/Hektar
Description: as §1

Zea mays [16] = assay: herbicidal activity, Erde Vorauflauf; assay type: in vivo; settings: 2000 Gramm/Hektar
Description: as §1

Xanthium strumarium [17] = assay: herbicidal activity, Erde Vorauflauf; assay type: in vivo; settings: 2000 Gramm/Hektar
Description: as §1

Cyperus esculentus [18] = assay: herbicidal activity, Erde Vorauflauf; assay type: in vivo; settings: 2000 Gramm/Hektar
Description: as §1

Amaranthus retroflexus [19] = assay: herbicidal activity, Erde Vorauflauf; assay type: in vivo; settings: 2000 Gramm/Hektar
Description: as §1

Abutilon theophrasti [20] = assay: herbicidal activity, Erde Vorauflauf; assay type: in vivo; settings: 2000 Gramm/Hektar
Description: as §1

Alopecurus myosuroides [21] = assay: herbicidal activity, Erde Vorauflauf; assay type: in vivo; settings: 2000 Gramm/Hektar
Description: as §1

Beta vulgaris [22] = assay: herbicidal activity, Erde Vorauflauf; assay type: in vivo; settings: 2000 Gramm/Hektar
Description: as §1

Setaria viridis [23] = assay: herbicidal activity, Erde Vorauflauf; assay type: in vivo; settings: 2000 Gramm/Hektar
Description: as §1

Plasmodium falciparum = assay: antimalaria activity on in vitro cultures, [3H]-hypoxanthine incorporation; assay type: cell-based; settings: 72 h, inhibition of [3H]-hypoxanthine incorporation, 48 + 24 hours, read-out: IC50(nM) of malaria culture (Plasmodium falciparum)
Description: The antimalaria activity of the compounds listed on page 9 was determined on in vitro cultures of the malaria pathogen Plasmodium falciparum. The depressions of a 96-well microtitre plate were charged with in each case 200 μl of an asynchroneous Plasmodium falciparum culture at a parasitaemia of 0,4% and haematokrit of 2%. A serial dilution series of the compounds in triple steps between concentrations of 100 to 0,14 μmol 1^−1 was then prepared. The plates were incubated at 37° C., 3% CO2 and 5% O2 over a period of 48 hours. 30 μl medium supplemented with 27 μCi ml^−1 [^3H]-hypoxanthine were then added to each well. After incubation for 24 hours the parasites were harvested by filtration on a glass fibre filter and the radioactivity which had been incorporated was measured. The inhibition of the growth of parasites was measured as the percentage inhibition of the incorporation of tritium. Inhibition of the growth of the parasites has been determined as percentage inhibition of incorporation of tritium based on a comparison without the substance. The half-maximum inhibitory concentration (IC50) of the substance was determined by extrapolation of the values.

SMILES | pest or weed control at 2000 g/ha (Sinapis arvensis [1]) [%] | pest or weed control at 2000 g/ha (Avena fatua [2]) [%] | pest or weed control at 2000 g/ha (Galium aperine [3]) [%] | plant injury at 2000 g/ha (Zea mays [4]) [%] | pest or weed control at 2000 g/ha (Xanthium strumarium [5]) [%] | pest or weed control at 2000 g/ha (Cyperus esculentus [6]) [%] | pest or weed control at 2000 g/ha (Amaranthus retroflexus [7]) [%] | pest or weed control at 2000 g/ha (Abutilon theophrasti [8]) [%] | pest or weed control at 2000 g/ha (Alopecurus myosuroides [9]) [%] | plant injury at 2000 g/ha (Beta vulgaris [10]) [%] | pest or weed control at 2000 g/ha (Setaria viridis [11]) [%] | pest or weed control at 4000 g/ha (Solanum) [%] | pest or weed control at 4000 g/ha (Lepidium) [%] | pest or weed control at 4000 g/ha (Reis) [%] | pest or weed control at 4000 g/ha (Echinochloa) [%] | MIC (Pseudomonas aeruginosa) [nM] | IC50 [12] [nM] | pest or weed control at 2000 g/ha (Sinapis arvensis [13]) [%] | pest or weed control at 2000 g/ha (Avena fatua [14]) [%] | pest or weed control at 2000 g/ha (Galium aperine [15]) [%] | other results
CP(=O)(O)CCCN1OCCCC1=O [Compound 4] | 60 | 40 | 70 | 70 | 90 | 0 | 40 | 50 | 70 | 50 | 90 | 30 | 30 | 30 | 70 | 7000 (≈ 1.55 µg/mL) | 78 | 70 | 60 | 0 | plant injury at 2000 g/ha (Zea mays [16]): 30%; pest or weed control at 2000 g/ha (Xanthium strumarium [17]): 0%; pest or weed control at 2000 g/ha (Cyperus esculentus [18]): 0%; pest or weed control at 2000 g/ha (Amaranthus retroflexus [19]): 0%; pest or weed control at 2000 g/ha (Abutilon theophrasti [20]): 0%; pest or weed control at 2000 g/ha (Alopecurus myosuroides [21]): 0%; plant injury at 2000 g/ha (Beta vulgaris [22]): 60%; pest or weed control at 2000 g/ha (Setaria viridis [23]): 0%; IC50 (Plasmodium falciparum): 9200 nM
CC1CON(CCCP(=O)(O)O)C1=O (stereo not shown) [Compound 5] | 90 | 40 | 70 | 80 | 60 | 0 | 30 | 40 | 80 | 40 | 95 | 0 | 40 | 40 | 60 | 2200 (≈ 0.491 µg/mL) | 100 | 50 | 0 | 0 | plant injury at 2000 g/ha (Zea mays [16]): 0%; pest or weed control at 2000 g/ha (Xanthium strumarium [17]): 0%; pest or weed control at 2000 g/ha (Cyperus esculentus [18]): 0%; pest or weed control at 2000 g/ha (Amaranthus retroflexus [19]): 0%; pest or weed control at 2000 g/ha (Abutilon theophrasti [20]): 0%; pest or weed control at 2000 g/ha (Alopecurus myosuroides [21]): 60%; plant injury at 2000 g/ha (Beta vulgaris [22]): 30%; pest or weed control at 2000 g/ha (Setaria viridis [23]): 0%; IC50 (Plasmodium falciparum): 1200 nM
